{"source": "the NIST ThermoML archive (doi:10.1016/j.jct.2013.06.003)", "key": {"[1]": {"assay": "Molar enthalpy of transition or fusion", "conditions": "Crystal; DSC"}, "[2]": {"conditions": "Crystal; for vapor or sublimation pressure: Calculated from knudsen effusion weight loss; for Normal melting temperature: DTA"}}, "note": "“And” between values parts separate entries of the source, which are not always exact repeats. Equal values may be shown once. ± gives the expanded uncertainty stated by the source."}
{"smiles": "N#Cc1ccc(Br)cc1", "note": "[4-bromobenzonitrile]", "values": [{"measurement": "Molar enthalpy of transition or fusion", "setting": "[1]", "value": "20.7 ± 1.1", "unit": "kJ/mol"}]}
{"smiles": "N#Cc1cccc(I)c1", "note": "[3-iodobenzonitrile]", "values": [{"measurement": "vapor or sublimation pressure", "setting": "[2]; 276.18 K", "value": "9.88e-05 ± 5e-06 kPa and 0.0001 ± 5e-06 kPa and 9.93e-05 ± 5e-06 kPa"}, {"measurement": "vapor or sublimation pressure", "setting": "[2]; 278.16 K", "value": "0.000122 ± 6e-06 kPa and 0.000125 ± 6e-06 kPa and 0.000123 ± 6e-06 kPa"}, {"measurement": "vapor or sublimation pressure", "setting": "[2]; 280.26 K", "value": "0.000161 ± 8e-06 kPa and 0.00016 ± 8e-06 kPa and 0.000163 ± 8e-06 kPa"}, {"measurement": "vapor or sublimation pressure", "setting": "[2]; 282.15 K", "value": "0.000204 ± 1e-05 kPa and 0.000206 ± 1e-05 kPa and 0.000207 ± 1e-05 kPa"}, {"measurement": "vapor or sublimation pressure", "setting": "[2]; 284.15 K", "value": "0.000269 ± 1.3e-05", "unit": "kPa"}, {"measurement": "vapor or sublimation pressure", "setting": "[2]; 286.17 K", "value": "0.00034 ± 1.7e-05 kPa and 0.000339 ± 1.7e-05 kPa and 0.000336 ± 1.7e-05 kPa"}, {"measurement": "vapor or sublimation pressure", "setting": "[2]; 288.17 K", "value": "0.000437 ± 2.2e-05 kPa and 0.000432 ± 2.2e-05 kPa and 0.000441 ± 2.2e-05 kPa"}, {"measurement": "vapor or sublimation pressure", "setting": "[2]; 290.14 K", "value": "0.000539 ± 2.7e-05 kPa and 0.000537 ± 2.7e-05 kPa and 0.00054 ± 2.7e-05 kPa"}, {"measurement": "vapor or sublimation pressure", "setting": "[2]; 292.13 K", "value": "0.00069 ± 3.5e-05 kPa and 0.000686 ± 3.4e-05 kPa and 0.000699 ± 3.5e-05 kPa"}, {"measurement": "vapor or sublimation pressure", "setting": "[2]; 294.21 K", "value": "0.000869 ± 4.4e-05 kPa and 0.000876 ± 4.4e-05 kPa and 0.000882 ± 4.4e-05 kPa"}, {"measurement": "vapor or sublimation pressure", "setting": "[2]; 296.14 K", "value": "0.0011 ± 0.00011 kPa and 0.00111 ± 0.00011 kPa"}, {"measurement": "Normal melting temperature", "setting": "[2]", "value": "40.12 ± 0.39", "unit": "°C"}, {"measurement": "Molar enthalpy of transition or fusion", "setting": "[1]", "value": "15.1 ± 1.3", "unit": "kJ/mol"}]}
{"smiles": "N#Cc1ccccc1I", "note": "[2-iodobenzonitrile]", "values": [{"measurement": "vapor or sublimation pressure", "setting": "[2]; 283.19 K", "value": "0.000104 ± 5e-06 kPa and 0.000103 ± 5e-06 kPa and 0.000101 ± 5e-06 kPa"}, {"measurement": "vapor or sublimation pressure", "setting": "[2]; 285.15 K", "value": "0.000128 ± 6e-06 kPa and 0.000129 ± 6e-06 kPa and 0.000125 ± 6e-06 kPa"}, {"measurement": "vapor or sublimation pressure", "setting": "[2]; 287.17 K", "value": "0.00016 ± 8e-06 kPa and 0.000159 ± 8e-06 kPa and 0.000168 ± 8e-06 kPa"}, {"measurement": "vapor or sublimation pressure", "setting": "[2]; 288.91 K", "value": "0.000199 ± 1e-05 kPa and 0.000205 ± 1e-05 kPa"}, {"measurement": "vapor or sublimation pressure", "setting": "[2]; 291.13 K", "value": "0.000263 ± 1.3e-05 kPa and 0.000257 ± 1.3e-05 kPa and 0.000268 ± 1.3e-05 kPa"}, {"measurement": "vapor or sublimation pressure", "setting": "[2]; 293.15 K", "value": "0.000336 ± 1.7e-05 kPa and 0.000341 ± 1.7e-05 kPa and 0.000346 ± 1.7e-05 kPa"}, {"measurement": "vapor or sublimation pressure", "setting": "[2]; 295.15 K", "value": "0.000419 ± 2.1e-05 kPa and 0.000414 ± 2.1e-05 kPa and 0.000427 ± 2.1e-05 kPa"}, {"measurement": "vapor or sublimation pressure", "setting": "[2]; 297.15 K", "value": "0.000521 ± 2.6e-05 kPa and 0.000547 ± 2.7e-05 kPa"}, {"measurement": "vapor or sublimation pressure", "setting": "[2]; 299.12 K", "value": "0.000651 ± 3.3e-05 kPa and 0.00066 ± 3.3e-05 kPa and 0.000671 ± 3.4e-05 kPa"}, {"measurement": "vapor or sublimation pressure", "setting": "[2]; 301.15 K", "value": "0.000857 ± 4.3e-05 kPa and 0.000861 ± 4.3e-05 kPa and 0.000864 ± 4.3e-05 kPa"}, {"measurement": "vapor or sublimation pressure", "setting": "[2]; 303.17 K", "value": "0.00103 ± 0.0001", "unit": "kPa"}, {"measurement": "Normal melting temperature", "setting": "[2]", "value": "53.54 ± 0.39", "unit": "°C"}, {"measurement": "Molar enthalpy of transition or fusion", "setting": "[1]", "value": "16.6 ± 1.3", "unit": "kJ/mol"}]}
{"smiles": "N#Cc1cccc(Br)c1", "note": "[3-bromobenzonitrile]", "values": [{"measurement": "Molar enthalpy of transition or fusion", "setting": "[1]", "value": "16.6 ± 1.9", "unit": "kJ/mol"}]}
{"smiles": "N#Cc1ccc(I)cc1", "note": "[4-iodobenzonitrile]", "values": [{"measurement": "vapor or sublimation pressure", "setting": "[2]; 294.17 K", "value": "0.000111 ± 6e-06 kPa and 0.000109 ± 5e-06 kPa and 0.00011 ± 6e-06 kPa"}, {"measurement": "vapor or sublimation pressure", "setting": "[2]; 296.2 K", "value": "0.000141 ± 7e-06 kPa and 0.000143 ± 7e-06 kPa"}, {"measurement": "vapor or sublimation pressure", "setting": "[2]; 298.18 K", "value": "0.000182 ± 9e-06", "unit": "kPa"}, {"measurement": "vapor or sublimation pressure", "setting": "[2]; 300.18 K", "value": "0.000226 ± 1.1e-05 kPa and 0.000228 ± 1.1e-05 kPa and 0.000223 ± 1.1e-05 kPa"}, {"measurement": "vapor or sublimation pressure", "setting": "[2]; 302.26 K", "value": "0.000294 ± 1.5e-05 kPa and 0.000296 ± 1.5e-05 kPa"}, {"measurement": "vapor or sublimation pressure", "setting": "[2]; 304.29 K", "value": "0.000353 ± 1.8e-05 kPa and 0.000365 ± 1.8e-05 kPa and 0.000368 ± 1.8e-05 kPa"}, {"measurement": "vapor or sublimation pressure", "setting": "[2]; 306.28 K", "value": "0.000452 ± 2.3e-05 kPa and 0.000454 ± 2.3e-05 kPa and 0.000444 ± 2.2e-05 kPa"}, {"measurement": "vapor or sublimation pressure", "setting": "[2]; 308.2 K", "value": "0.000562 ± 2.8e-05 kPa and 0.000563 ± 2.8e-05 kPa and 0.000565 ± 2.8e-05 kPa"}, {"measurement": "vapor or sublimation pressure", "setting": "[2]; 310.15 K", "value": "0.000715 ± 3.6e-05 kPa and 0.000717 ± 3.6e-05 kPa and 0.000701 ± 3.5e-05 kPa"}, {"measurement": "vapor or sublimation pressure", "setting": "[2]; 312.16 K", "value": "0.000889 ± 4.5e-05 kPa and 0.000882 ± 4.4e-05 kPa"}, {"measurement": "vapor or sublimation pressure", "setting": "[2]; 314.05 K", "value": "0.00108 ± 0.00011 kPa and 0.00106 ± 0.00011 kPa"}, {"measurement": "Normal melting temperature", "setting": "[2]", "value": "125.46 ± 0.39", "unit": "°C"}, {"measurement": "Molar enthalpy of transition or fusion", "setting": "[1]", "value": "23.6 ± 1.1", "unit": "kJ/mol"}]}
{"smiles": "N#Cc1ccccc1Br", "note": "[2-bromobenzonitrile]", "values": [{"measurement": "Normal melting temperature", "setting": "[2]", "value": "54.0 ± 0.7", "unit": "°C"}, {"measurement": "Molar enthalpy of transition or fusion", "setting": "[1]", "value": "17.2 ± 0.7", "unit": "kJ/mol"}]}
